Assays:
ear of a normal mouse = test: Influence of repeated application on the ear thickness of a normal mouse; type: in vivo; details: nine times in total, 2 hours after final application
Description: The therapeutic agent for dermatitis according to the present invention or the positive control (steroid preparation) was applied twice daily to the right ear of a normal mouse for a total of nine times and, 2 hours after the final application, the thickness of the ear was measured.

[1] = biological target: T1, phosphodiesterase type II (PDE II) (Homo sapiens, UniProt O00408); test: Inhibitory action against phosphodiesterase type II; type: biochemical; details: 100 μM; PDE II from human platelets
T1 construct: phosphodiesterase type II (PDE II) partially purified from human platelets; from tissue; host or cells: human platelets
T1 sequence (O00408 whole entry): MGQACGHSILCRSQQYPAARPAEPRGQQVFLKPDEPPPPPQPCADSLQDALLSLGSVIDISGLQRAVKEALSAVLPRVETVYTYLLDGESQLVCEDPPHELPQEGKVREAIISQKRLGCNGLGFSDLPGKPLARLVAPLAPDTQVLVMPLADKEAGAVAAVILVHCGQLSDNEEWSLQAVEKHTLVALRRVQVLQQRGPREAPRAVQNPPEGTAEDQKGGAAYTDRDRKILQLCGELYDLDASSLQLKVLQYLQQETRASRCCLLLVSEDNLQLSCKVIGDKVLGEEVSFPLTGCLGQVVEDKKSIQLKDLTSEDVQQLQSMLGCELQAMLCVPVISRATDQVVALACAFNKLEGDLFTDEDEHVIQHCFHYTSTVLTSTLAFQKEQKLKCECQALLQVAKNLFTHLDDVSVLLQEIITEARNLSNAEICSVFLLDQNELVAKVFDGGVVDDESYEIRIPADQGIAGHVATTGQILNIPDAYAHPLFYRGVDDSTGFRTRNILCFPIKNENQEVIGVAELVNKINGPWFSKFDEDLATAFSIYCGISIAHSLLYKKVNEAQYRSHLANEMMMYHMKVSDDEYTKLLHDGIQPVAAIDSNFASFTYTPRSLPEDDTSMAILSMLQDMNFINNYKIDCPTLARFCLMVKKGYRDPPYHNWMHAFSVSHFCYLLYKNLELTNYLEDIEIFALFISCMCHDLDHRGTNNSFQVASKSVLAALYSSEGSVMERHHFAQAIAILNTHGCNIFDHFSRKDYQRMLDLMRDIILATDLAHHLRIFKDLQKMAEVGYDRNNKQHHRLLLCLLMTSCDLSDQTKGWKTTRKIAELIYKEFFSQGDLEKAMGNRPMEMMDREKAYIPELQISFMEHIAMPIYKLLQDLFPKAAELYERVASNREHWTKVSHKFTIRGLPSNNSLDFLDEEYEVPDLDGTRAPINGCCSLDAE
Description: (§1) The inhibitory action of the compounds of the present invention against activities of various phosphodiesterase (PDE) isozymes were investigated using the conventional method. Each of the inhibitory action of the compounds of the present invention on the activities of phosphodiesterase type II (PDE II) partially purified from human platelets, phosphodiesterase type III […] partially purified from human platelets, phosphodiesterase type IV (PDE IV) partially purified from human U937 promonocytic leukemia cells and phosphodiesterase type V (PDE V) partially purified from human platelets were measured.

[2] = test system: phosphodiesterase type IV (PDE IV); test: Inhibitory action against phosphodiesterase type IV; type: biochemical, human
Description: as §1

[3] = biological target: T2, phosphodiesterase type III (Homo sapiens, UniProt Q14432); test: Inhibitory action against phosphodiesterase type III; type: biochemical; details: 100 μM; PDE III from human platelets
T2 construct: phosphodiesterase type III […] partially purified from human platelets; from tissue; host or cells: human platelets
T2 sequence (Q14432 whole entry): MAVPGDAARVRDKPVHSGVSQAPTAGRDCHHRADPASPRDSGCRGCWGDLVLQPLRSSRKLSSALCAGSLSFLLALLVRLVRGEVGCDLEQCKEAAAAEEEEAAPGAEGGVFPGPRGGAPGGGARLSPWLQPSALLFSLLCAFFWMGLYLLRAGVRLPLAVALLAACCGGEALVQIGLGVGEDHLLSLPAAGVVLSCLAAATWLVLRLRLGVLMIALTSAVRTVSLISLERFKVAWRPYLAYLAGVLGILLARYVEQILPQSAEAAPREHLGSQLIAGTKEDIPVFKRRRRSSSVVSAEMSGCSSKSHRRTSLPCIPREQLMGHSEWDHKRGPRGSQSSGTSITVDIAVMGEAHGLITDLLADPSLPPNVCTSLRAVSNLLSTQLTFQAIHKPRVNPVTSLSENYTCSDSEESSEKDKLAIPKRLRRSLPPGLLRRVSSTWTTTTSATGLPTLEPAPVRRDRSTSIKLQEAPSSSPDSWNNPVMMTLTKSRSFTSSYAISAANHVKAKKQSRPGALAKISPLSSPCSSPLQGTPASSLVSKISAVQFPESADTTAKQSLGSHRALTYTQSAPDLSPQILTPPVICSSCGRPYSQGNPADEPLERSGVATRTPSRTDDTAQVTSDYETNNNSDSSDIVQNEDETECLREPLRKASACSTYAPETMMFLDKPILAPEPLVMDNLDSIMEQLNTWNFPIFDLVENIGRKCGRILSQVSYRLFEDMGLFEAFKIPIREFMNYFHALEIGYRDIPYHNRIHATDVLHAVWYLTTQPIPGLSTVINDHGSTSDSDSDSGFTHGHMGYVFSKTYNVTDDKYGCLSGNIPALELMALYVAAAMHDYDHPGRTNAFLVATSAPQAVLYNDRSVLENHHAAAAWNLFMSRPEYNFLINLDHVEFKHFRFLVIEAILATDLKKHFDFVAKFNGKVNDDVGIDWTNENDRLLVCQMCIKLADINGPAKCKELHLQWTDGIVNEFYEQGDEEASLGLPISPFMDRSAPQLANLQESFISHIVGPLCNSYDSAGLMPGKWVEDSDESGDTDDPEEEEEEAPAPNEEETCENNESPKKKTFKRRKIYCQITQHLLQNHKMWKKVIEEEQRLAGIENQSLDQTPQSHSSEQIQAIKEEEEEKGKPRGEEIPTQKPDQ
Description: as §1

[4] = test system: antigen-induced swelling reaction in a mouse ear; test: Suppressive action against antigen-induced swelling reaction in a mouse ear; type: in vivo, BALB/c female mice
Description: Seven week old BALB/c female (SPF) mice of were selected as subjects. According to a method of Tanaka, et al. (Allergy, 46, pages 42-48(1997)), egg white albumin (final concentration: 2 μg/mL) and aluminum hydroxide gel (final concentration: 10 mg/mL) were suspended in physiological saline and 0.5 mL of the suspension was administered to effect intraperitoneal sensitization on the first day of the test. On the 14th day of the test, an additional sensitization was carried out under the same conditions. Further, on the 28th day of the test, 25 μL of egg albumin (a 20 μg/mL solution in physiological saline) was intradermally administered to the right ear of a mouse to induce a swelling reaction.
This swelling reaction reached its peak at 4 hours after the challenge by the antigen. Even after 24 to 48 hours, a significant swelling reaction was noted as compared with the control in which antigen was merely challenged (not sensitized). […] On the contrary, the swelling from 24 to 48 hours after the challenge is thought to be the so-called delayed-type swelling reaction accompanied by infiltration of eosinophils, neutrophils and lymphocytes. In addition, a flare-up reaction having a peak at 24 hours after the challenge appeared on the ear of the antigen-induced site. Like swelling, flare-up is an important symptom of inflammation. Although the mechanism of the flare-up reaction is ambiguous, it may be a flare-up reaction of a delayed type in view of the time course of its expression. As such, this model animal in which the inflammation of both immediate and delayed types are induced is appropriate as a model animal for atopic dermatitis. In the following experiment, the effectiveness of the therapeutic agent for dermatitis according to the present invention was tested using the said model animal.
Each of a vehicle (control) and a test agent (containing the compound of the present invention or a positive control) was applied to the antigen-induced site (right auricle) of a mouse. A swelling reaction was induced in accordance with Example 2 at 2 hours before and 4 hours after the challenge. After the challenge, the thickness of the swelling induced ear was measured by a Dial Thickness Gauge (manufactured by Ozaki Seisakusho). The intensity of the reaction was expressed in terms of an increase in the auricle thickness by deducting the thickness (early value) measured before the challenge from the thickness of the swelling induced ear. The suppression rate of the test drug for ear swelling was calculated by the following formula:
Suppression Rate (%)=100 ×[(Ear Thickness Increase of Vehicle-Only-Control)—(Ear Thickness Increase of the Test Group)]/[(Ear Thickness Increase of the Vehicle-Only-Control)—(Ear Thickness Increase of the Challenge-Only-Group)]

[5] = test system: guinea pig eosinophils in the abdominal cavity; test: Suppression of LTB4-induced chemotaxis of guinea pig eosinophils (modified Boyden chamber); type: cell-based, Hartley male guinea pigs; details: Cavia porcellus, Eosinophil; chemotaxis induced by 10^-7 M LTB4, 37° C., 2 hours; 5 trials
Description: The suppressive effect of the compounds of the present invention on the leukotriene B4 or LTB4 induced chemotaxis of guinea pig eosinophils in the abdominal cavity were investigated using a modified Boyden chamber method. The guinea pig eosinophils in the abdominal cavity were prepared using Hartley male guinea pigs according to the conventional method. The chemotaxis of the eosinophils was induced by 10^−7 M of leukotriene B4 or LTB4 in 37° C. for 2 hours in the presence or absence of the test drug (the therapeutic agent for dermatitis of the present invention). After the chemotaxis cells were fixed and stained using the Giemsa stain, the number of chemotaxis cells was counted in visual fields of a microscope (×400). The experiments were repeated several times and the suppression rate of the test drug was calculated by the following formula:
Suppression Rate (%)=100×[(the number of chemotaxis eosinophils in control group)—(the number of chemotaxis eosinophils in the test drug group)]/[(the number of chemotaxis eosinophils in control group)—(the number of spontaneous chemotaxis eosinophils)]
The 50% inhibitory concentration (IC50) was calculated from the regression line obtained by the least square method based on the calculated suppression rates.

Nc1ccc2c(=O)n(Cc3ccccc3)c(=O)n(-c3ccccc3)c2n1 [Compound 1, 7-amino-3-benzyl-1,2,3,4-tetrahydro-1-phenylpyrido[2,3-d]pyrimidin-2,4-dione]
Ear Thickness (ear of a normal mouse; 3% ointment applied twice daily): 22.3 ± 0.2 × 0.01 mm | Ear Thickness (ear of a normal mouse; 10% ointment applied twice daily): 22.3 ± 0.5 × 0.01 mm | suppression activity against PDE II [1]: 6% | dose dependence of PDE IV inhibitory effect [2]: dose dependent | suppression activity against PDE IV ([2]; 100 μM, PDE IV from human U937 promonocytic leukemia cells): 82% | PDE isozyme selectivity ([2]; PDE IV versus PDE II, III and V at 100 μM): PDE IV selective inhibitory effect | suppression activity against PDE III [3]: 22% | Ear Thickness Increase at 1 hr after Challenge ([4]; Table 1, 1% ointment): 6.3 ± 1.4 × 0.01 mm | Suppression Rate of ear thickness increase at 1 hr after Challenge ([4]; Table 1, 1% ointment): (106.1%) | Ear Thickness Increase at 4 hr after Challenge ([4]; Table 1, 1% ointment): 18.0 ± 0.9 × 0.01 mm | Suppression Rate of ear thickness increase at 4 hr after Challenge ([4]; Table 1, 1% ointment): (34.0%) | Ear Thickness Increase at 8 hr after Challenge ([4]; Table 1, 1% ointment): 16.0 ± 0.4 × 0.01 mm | Suppression Rate of ear thickness increase at 8 hr after Challenge ([4]; Table 1, 1% ointment): (26.0%) | Ear Thickness Increase at 24 hr after Challenge ([4]; Table 1, 1% ointment): 9.3 ± 1.1 × 0.01 mm | Suppression Rate of ear thickness increase at 24 hr after Challenge ([4]; Table 1, 1% ointment): (51.3%) | Ear Thickness Increase at 48 hr after Challenge ([4]; Table 1, 1% ointment): 6.8 ± 1.0 × 0.01 mm | Suppression Rate of ear thickness increase at 48 hr after Challenge ([4]; Table 1, 1% ointment): (47.8%) | Ear Thickness Increase at 1 hr after Challenge ([4]; Table 1, 3% ointment): 5.3 ± 0.5 × 0.01 mm | Suppression Rate of ear thickness increase at 1 hr after Challenge ([4]; Table 1, 3% ointment): (136.4%) | Ear Thickness Increase at 4 hr after Challenge ([4]; Table 1, 3% ointment): 2.3 ± 0.9 × 0.01 mm | Suppression Rate of ear thickness increase at 4 hr after Challenge ([4]; Table 1, 3% ointment): (18.4%) | Ear Thickness Increase at 8 hr after Challenge ([4]; Table 1, 3% ointment): 15.8 ± 1.4 × 0.01 mm | Suppression Rate of ear thickness increase at 8 hr after Challenge ([4]; Table 1, 3% ointment): (27.2%) | Ear Thickness Increase at 24 hr after Challenge ([4]; Table 1, 3% ointment): 7.8 ± 0.9 × 0.01 mm | Suppression Rate of ear thickness increase at 24 hr after Challenge ([4]; Table 1, 3% ointment): (61.3%) | Ear Thickness Increase at 48 hr after Challenge ([4]; Table 1, 3% ointment): 5.3 ± 0.9 × 0.01 mm | Suppression Rate of ear thickness increase at 48 hr after Challenge ([4]; Table 1, 3% ointment): (64.1%) | Ear Thickness Increase at 4 hr after Challenge ([4]; Table 2, 0.3% ointment): 20.3 ± 2.4 × 0.01 mm | Suppression Rate of ear thickness increase at 4 hr after Challenge ([4]; Table 2, 0.3% ointment): (18.7%) | Ear Thickess Increase at 24 hr after Challenge ([4]; Table 2, 0.3% ointment): 13.5 ± 1.3 × 0.01 mm | Suppression Rate of ear thickness increase at 24 hr after Challenge ([4]; Table 2, 0.3% ointment): (19.4%) | Ear Thickness Increase at 4 hr after Challenge ([4]; Table 2, 3% ointment): 13.3 ± 0.3 × 0.01 mm | Suppression Rate of ear thickness increase at 4 hr after Challenge ([4]; Table 2, 3% ointment): (49.8%) | Ear Thickess Increase at 24 hr after Challenge ([4]; Table 2, 3% ointment): 9.3 ± 1.7 × 0.01 mm | Suppression Rate of ear thickness increase at 24 hr after Challenge ([4]; Table 2, 3% ointment): (46.5%) | IC50 [5]: 1.9 ± 0.4 µM | melting point: 261 to 262 °C
